In the test the target is T1, ZtrLac1A (Zymoseptoria tritici, UniProt F9XCG9).
T1 construct: gene MYCGRDRAFT_109666; mature protein residues 46-723, native signal peptide removed; catalytic module (556 residues) plus linker plus CBM20; secreted by Pichia pastoris X-33 (pPICZalphaA); N-glycosylated; 79 kDa calculated, 93 kDa on SDS-PAGE; EC 1.10.3.2
T1 sequence (F9XCG9 46-723): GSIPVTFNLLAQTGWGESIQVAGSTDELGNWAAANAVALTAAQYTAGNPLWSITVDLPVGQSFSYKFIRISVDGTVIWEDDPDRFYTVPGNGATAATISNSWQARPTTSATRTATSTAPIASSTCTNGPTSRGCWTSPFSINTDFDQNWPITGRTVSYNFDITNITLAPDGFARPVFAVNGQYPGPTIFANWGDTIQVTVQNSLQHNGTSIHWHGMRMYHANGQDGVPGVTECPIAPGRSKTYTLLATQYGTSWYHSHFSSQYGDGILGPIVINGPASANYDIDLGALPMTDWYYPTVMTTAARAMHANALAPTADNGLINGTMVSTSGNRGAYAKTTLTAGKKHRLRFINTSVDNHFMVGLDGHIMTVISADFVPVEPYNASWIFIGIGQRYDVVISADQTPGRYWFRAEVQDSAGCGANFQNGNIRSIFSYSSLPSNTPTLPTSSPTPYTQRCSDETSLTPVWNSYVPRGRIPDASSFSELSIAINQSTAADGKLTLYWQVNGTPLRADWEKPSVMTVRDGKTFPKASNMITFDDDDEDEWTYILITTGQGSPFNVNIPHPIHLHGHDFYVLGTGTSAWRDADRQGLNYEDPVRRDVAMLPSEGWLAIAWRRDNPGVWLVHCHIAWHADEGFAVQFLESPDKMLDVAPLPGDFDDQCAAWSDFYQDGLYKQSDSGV
Briefly: isothermal titration calorimetry, one-site model. The conditions noted are these: 20 mM sodium acetate, pH 5.5, 25 °C; starch mimic, CBM20 starch-binding module, not the laccase active site. An excerpt:
isothermal titration calorimetry, one-site model on ZtrLac1A | ZtrLac1A binds to β-CD with an association constant of Ka
(In general: In ITC the heat of successive injections is recorded.)

As a reminder, the Kd is the constant that tells how readily two partners part at equilibrium.

On to `OC[C@H]1O[C@@H]2O[C@H]3[C@H](O)[C@@H](O)[C@@H](O[C@H]4[C@H](O)[C@@H](O)[C@@H](O[C@H]5[C@H](O)[C@@H](O)[C@@H](O[C@H]6[C@H](O)[C@@H](O)[C@@H](O[C@H]7[C@H](O)[C@@H](O)[C@@H](O[C@H]8[C@H](O)[C@@H](O)[C@@H](O[C@H]1[C@H](O)[C@H]2O)O[C@@H]8CO)O[C@@H]7CO)O[C@@H]6CO)O[C@@H]5CO)O[C@@H]4CO)O[C@@H]3CO` [β-CD, β-cyclodextrin], for which the affinity, expressed as Kd, was 32.6 ± 2.4 µM.

The record behind these values is PMC6700816, “A novel starch-binding laccase from the wheat pathogen Zymoseptoria tritici highlights the functional diversity of ascomycete laccases” (BMC Biotechnology, 2019).
